Measurements published in US6448268B1, “Aryl-{4-fluoro-4-[(2-pyridin-2-yl-ethylamino)-methyl]-piperidin-1-yl}-methanone derivatives as 5-ht1 receptor antagonists” (Pierre Fabre Medicament, priority 1998, dated 2002).
Structures can show the parent of a compound that is named as a salt.

What was measured:
5-HT1A receptor [1] = target: T1, 5-HT1A receptor (Rattus norvegicus, UniProt P19327); assay: 5-HT1A receptor agonist activity in vivo: lower lip retraction (LLR) after oral administration; set-up: Male Sprague Dawley rats (ICO:OFAD [IOPS], Iffa Credo, France); from tissue; host or cells: whole animal, male Sprague Dawley rats, oral dosing; conditions: rats, observed t55 to t65 min, doses as base weight, read-out: LLR p.o. ED50
T1 sequence (P19327 1-422): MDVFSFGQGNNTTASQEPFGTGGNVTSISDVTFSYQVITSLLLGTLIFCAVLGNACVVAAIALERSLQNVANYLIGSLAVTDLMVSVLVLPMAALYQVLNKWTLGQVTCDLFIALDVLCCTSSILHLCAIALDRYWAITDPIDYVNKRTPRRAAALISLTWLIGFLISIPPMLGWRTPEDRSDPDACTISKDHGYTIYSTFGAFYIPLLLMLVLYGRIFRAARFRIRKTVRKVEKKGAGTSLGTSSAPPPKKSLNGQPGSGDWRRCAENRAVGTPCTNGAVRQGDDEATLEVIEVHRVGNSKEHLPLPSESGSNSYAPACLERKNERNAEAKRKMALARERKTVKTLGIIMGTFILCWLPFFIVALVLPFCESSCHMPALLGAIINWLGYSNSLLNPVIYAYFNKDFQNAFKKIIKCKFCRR
Source text: 3—Evaluation of the 5-HT1A Receptor Agonist Activity of the Compounds of the Invention In Vivo.
Male Sprague Dawley rats (ICO:OFAD [IOPS], Iffa Credo, France), weighing 160-180 g on arrival and 180-200 g at the start of the tests, are used. The animals are placed in quarantine for 4 to 8 days with free access to standardized laboratory food, before being used in the experiments. The animals are housed individually in plastic cages on cage holders (28 cm×21 cm×18 cm) with a grille floor (RC Iffa Credo), 24 hours before the tests. By means of an automatic dispenser, water filtered through a 0.22 μm filter is freely available. The quarantine area and the experiment laboratory are air conditioned (temperature: 22±1° C.; relative humidity: 55±5%) and illuminated from 7 a.m. to 7 p.m. All the rats are treated according to the ethics for laboratory animals (Guide for the Care and Use of Laboratory Animals, U.S. Department of Agriculture, Public Health Service, National Institutes of Health publication No. 85-23, Revised 1985) and the protocol (No. 15) is carried out in accordance with the recommendations of the local research animals ethics committee. […]
The behavior of the animal is observed for a period of 10 minutes each, centered at t60 minutes, after oral administration. […] The products are administered in a volume of 10 ml/kg and the doses are expressed as base weight. […]

5-HT1A receptor [2] = target: T1, 5-HT1A receptor; assay: Affinity for 5-HT1A receptors by displacement of (3H)8-OH-DPAT; type: binding; set-up: from tissue; host or cells: rat cerebral cortex membrane homogenate; conditions: for Ki: rat cerebral cortex, (3H)8-OH-DPAT displacement, read-out: pKi 5-HT1A (converted); for Selectivity 5-HT1A/D2: ratio of the affinity constants (Ki) D2/Ki (5-HT1A)
Protocol: 1—Measurement of the Affinity of the Compounds of the Invention for the 5-HT1A Receptors
The in vitro affinity of the compounds of the invention for 5-HT1A receptors was determined by measuring the displacement of (^3H)8-OH-DPAT (TRK 850; 160-240 Ci/mmol).
The study of the binding to the 5-HT1A receptor is carried out as described by Sleight and Peroutka (Naunyn-Schmiedeberg's Arch. Pharmaco., 1991, 343, 106). Rat cerebral cortices are used for these experiments. After thawing the brain in 50 mmol Tris-HCl buffer pH=7.40 at 25° C., the cerebral cortex is removed and homogenized in 20 volumes of buffer maintained at 4°C. The homogenate is centrifuged at 39,000×g for 10 minutes and the centrifugation pellet is suspended in the same volume of buffer and centrifuged again. After resuspending under the same conditions, the homogenate is incubated for 10 minutes at 37° C. and then centrifuged again. The final pellet is suspended in cold 50 mmol Tris-HCl reaction buffer, pH=7.40 at 25° C., containing 10 mmol of pargyline, 4 mmol of CaCl2 and 0.10% ascorbic acid. The final concentration of tissue in the incubation medium is 10 mg/tube.
The reaction tubes contain 0.10 ml of (^3H)8-OH-DPAT ([…]), 0.10 ml of test product 6-7 concentrations and 0.80 ml of tissue. The nonspecific binding is defined using 10 mmol of 5-HT. The reaction tubes are incubated at 23° C. for 30 minutes and their contents are then rapidly filtered under vacuum through Whatman GF/B filters and the tubes are rinsed with twice 5 ml of 50 mmol Tris-HCl buffer, pH=7.4 at 25° C. The radioactivity collected on the filter is analyzed by liquid scintillation by adding 4 ml of liquid scintillant (Emulsifier Safe, Packard). All the experiments are carried out in triplicate.
The inhibition constants (Ki) of the products of the invention are estimated from the displacement experiments using the nonlinear regression program RADLIG version 4 from EBDA (Equilibrium Binding Data Analysis) (Biosoft, Cambridge, UK, McPherson, 1985). The dissociation constants of the radioactive ligands used in the calculations are […] for (^3H)8-OH-DPAT and 0.036 mmol for (^3H)YM-09151-2. The pKi (−logKi) values are given in the form of the mean±SEM of at least 3 experiments.

With `O=C(c1ccc(F)c(Cl)c1)N1CCC(F)(CNCCc2ccccn2)CC1` [Example 1, (3-Chloro-4-fluorophenyl){4-fluoro-4-[(2-pyrid-2-ylethylamino)methyl]-l-piperidyl}methanone] the ED50 (5-HT1A receptor [1]) was 0.31 mg/kg, the Ki (5-HT1A receptor [2]) was 0.155 nM and the “Selectivity 5-HT1A/D2” value (5-HT1A receptor [2]) was 4 266.

`O=C(c1ccc(F)c(Cl)c1)N1CCC(F)(CNCCc2ccccn2)CC1` (as salt: oxalate) [Example 1, (3-Chloro-4-fluorophenyl){4-fluoro-4-[(2-pyrid-2-ylethylamino)methyl]-l-piperidyl}methanone] gave a melting point of 172 to 174 °C.

`O=C(c1ccc(Cl)c(Cl)c1)N1CCC(F)(CNCCc2ccccn2)CC1` (as salt: oxalate) [Example 2, (3,4-Dichlorophenyl){4-fluoro-4-[(2-pyrid-2-ylethylamino)methyl]-1-piperidyl}methanone] gave a melting point of 192 to 194 °C.

For `O=C(c1ccc(Cl)c(Cl)c1)N1CCC(F)(CNCCc2ccccn2)CC1` [Example 2, (3,4-Dichlorophenyl){4-fluoro-4-[(2-pyrid-2-ylethylamino)methyl]-1-piperidyl}methanone], the ED50 (5-HT1A receptor [1]) was 0.31 mg/kg, the Ki (5-HT1A receptor [2]) was 0.38 nM and the “Selectivity 5-HT1A/D2” value (5-HT1A receptor [2]) was 1 318.
